In ChEMBL document CHEMBL1126056, “Asymmetric synthesis of 1,3-dioxolane-pyrimidine nucleosides and their anti-HIV activity” (J Med Chem, 1992) one finds EC50, IC50 and EC90 data, which are given here for 13 molecules.

Test [1] in a line: Effective concentration against HIV-1 in peripheral blood mononuclear cells(PBM). Type of test: functional, Homo sapiens.
A short description of test [2]: Cytotoxicity in peripheral blood mononuclear cells(PBM). Type of test: functional, cell-based. The note with it: Homo sapiens.
The test system of test [3] is Vero. Briefly: Cytotoxicity in vero cells. Type of test: functional, cell-based. The note with it: Chlorocebus sabaeus.
Test [4] is described as follows: Cytotoxicity in peripheral blood mononuclear cells (PBM). Type of test: functional, cell-based. The note with it: Homo sapiens.
Test [5] can be described thus: Effective concentration against HIV-1 in peripheral blood mononuclear cells (PBM). Type of test: functional, Homo sapiens.
A short description of test [6]: The compound was tested for antiviral activity against AZT resistant strain 10 HIV in PBM cells. Type of test: functional. Conditions: Homo sapiens, PBMC.
The nature of test [7]: The compound was tested for antiviral activity against AZT resistant strain 9F HIV in PBM cells. Type of test: functional, cell-based. Conditions: Homo sapiens, PBMC.
Test [8] in a line: The compound was tested for antiviral activity against AZT sensitive strain 9F HIV in PBM cells. Type of test: functional, cell-based. Conditions: Homo sapiens, PBMC.
Test [9] can be described thus: The compound was tested for antiviral activity against AZT sensitive 10 HIV in PBM cells. Conditions: Homo sapiens, PBMC. Type of test: functional.
Test [10] is described as follows: Cytotoxicity in peripheral blood mononuclear. Type of test: functional, Homo sapiens.

`O=c1[nH]c(=O)n([C@@H]2CO[C@@H](CO)O2)cc1Br` registered an EC50 in test [1] greater than 100 µM. Besides, the IC50 in test [2] and in [3] was greater than 100 µM in each case.

For `O=c1[nH]c(=O)n([C@H]2CO[C@@H](CO)O2)cc1F`, the 50% inhibitory concentration (IC50) in test [4] and in test [3] was greater than 100 µM in each case. Moreover, the concentration for a half-maximal effect (EC50) in test [5] was 69.6 µM.

For `O=c1ccn([C@@H]2CO[C@@H](CO)O2)c(=O)[nH]1`, the half-maximal inhibitory concentration (IC50) in test [4] and in test [3] was greater than 100 µM each time. Moreover, in [5], the EC50 was greater than 100 µM.

For `Nc1ccn([C@H]2CO[C@@H](CO)O2)c(=O)n1`, the half-inhibitory concentration (IC50) in test [4] came out at 62 µM; in [3], 8.3 µM. For the same molecule, the midpoint of the response in test [5], the EC50, lay at 0.16 µM.

For the molecule `Cc1cn([C@H]2C[C@H](N=[N+]=[N-])[C@@H](CO)O2)c(=O)[nH]c1=O` [ZIDOVUDINE], the concentration for a half-maximal effect (EC50) turned out to be 0.009 µM in [1], 1200 nM in test [7] and 1.2 nM in [8]. In addition, the 50% inhibitory concentration (IC50) in [4] is greater than 100 µM; in test [3], 28 µM. The EC90 turned out to be 19 µM in test [6] and 6.5 nM in test [9].

Regarding `O=c1ccn([C@H]2CO[C@@H](CO)O2)c(=O)[nH]1`, the IC50 in test [4] and in [3] was greater than 100 µM in each case. In [5], this molecule yielded a concentration giving a half-maximal response (EC50) greater than 100 µM.

On to `Nc1ccn([C@@H]2CO[C@@H](CO)O2)c(=O)n1`, for which the IC50 in test [4] and in [3] was greater than 100 µM each time. The molecule further showed a concentration for a half-maximal effect (EC50) in test [5] of 2.4 µM.

Take `O=c1[nH]c(=O)n([C@H]2CO[C@@H](CO)O2)cc1Br`: in test [1], the 50% effective concentration (EC50) worked out at 9.3 µM. The IC50 in test [2] and in test [3] was greater than 100 µM in each case.

For `O=c1[nH]c(=O)n([C@@H]2CO[C@@H](CO)O2)cc1I`, the concentration for half-maximal inhibition (IC50) in [4] and in [3] was greater than 100 µM in each case. The molecule further came in with a concentration giving a half-maximal response (EC50) in test [5] greater than 100 µM.

For the molecule `O=c1[nH]c(=O)n([C@@H]2CO[C@@H](CO)O2)cc1F`, the IC50 in [4] and in test [3] was greater than 100 µM throughout. Besides, the EC50 in test [5] is greater than 100 µM.

Turning to `O=c1[nH]c(=O)n([C@H]2CO[C@@H](CO)O2)cc1I`, the IC50 in [4] and in test [3] was greater than 100 µM in each case. In test [5], the EC50 is greater than 100 µM.

For `O=c1[nH]c(=O)n([C@@H]2CO[C@@H](CO)O2)cc1Cl`, the concentration for half-maximal inhibition (IC50) in [4] and in [3] was greater than 100 µM in each case. Besides, the EC50 in test [5] is greater than 100 µM.

For `O=c1[nH]c(=O)n([C@H]2CO[C@@H](CO)O2)cc1Cl`, the half-maximal inhibitory concentration (IC50) in [10] and in test [3] was greater than 100 µM throughout. Further, the concentration for a half-maximal effect (EC50) in [5] turned out to be 6.8 µM.

The term EC50 denotes the midpoint of the concentration-response curve. A higher EC50 goes with a less potent agent. The IC50 is the concentration that gives 50% inhibition. High values mean weaker potency, low ones greater potency. One may read the EC90 as the concentration needed for an effect of 90%. A high value points to a need for much substance.
